Marks after values point to notes of the source that are not given here.
Assay: Total solids content of produced milk in sorbitol feeding trials
Assay type: in vivo, Holstein cows
Conditions: for Total Solids in Produced Milk: Pre-Partum Trial #1 (75/0/0 g/day in wk −3..−1/+1..+4/+5..+8)
Protocol: To determine the weight percent total solids, wet basis, in a sample, the actual weight of total solids is determined by analyzing the sample in accordance with Method #925.23 (33.2.09) of Official Methods of Analysis, Association of Official Analytical Chemists (AOAC) (16th Ed., 1995). The weight percent total solids, wet basis, is then calculated by dividing the actual weight of total solids by the actual weight of the sample. Each cow of each of the six different trials (Control Trial #1, Control Trial #2, Pre-Partum Trial #1, Pre-Partum Trial #2, Pre/Post Trial #1, and Pre/Post Trial #2) was milked three times daily and the weight of produced milk by each cow was recorded at each milking. The milk from each cow was sampled once per week (⅓ of the sample volume from each of the three milkings occurring on the weekly milk sampling day) and was analyzed for true protein, total fat, lactose, and total solids, as detailed in the property determination and characterization techniques presented above. Additionally, samples of blood were periodically obtained from each cow during the four trials (Control Trial 2, Pre-Partum Trial #2, Pre/Post Trial #1, and Pre/Post Trial #2) encompassed in Example Two and were analyzed for non-esterified fatty acid (NEFA) content as detailed in the property determination and characterization techniques presented above. No NEFA analysis was conducted on the cows employed in Control Trial #1 or Pre-Partum Trial #1 that are the subject of Example One. Example One includes Control Trial #1 and Pre-Partum Trial #1. Both primiparious cows and multiparious cows were included in Control Trial #1 and Pre-Partum Trial #1. Five primiparious cows and fifteen multiparious cows were included in Control Trial #1; likewise, five primiparious cows and fifteen multiparious cows were included in Pre-Partum Trial #1. All cows included in Control Trial #1 and Pre-Partum Trial #1 were Holsteins. Example Two includes Control Trial #2, Pre-Partum Trial #2, Pre/Post Trial #1, and Pre/Post Trial #2. Only multiparious, Holstein cows were included in Control Trial #2, […], Pre/Post Trial #1, and Pre/Post Trial #2. Eighteen multiparious cows were included in both Control Trial #2 and Pre-Partum Trial #2, while sixteen multiparious cows were included in Pre/Post Trial #1 and seventeen multiparious cows were included in Pre/Post Trial #2.

OC[C@@H](O)[C@@H](O)[C@H](O)[C@@H](O)CO [sorbitol]
Total Solids in Produced Milk (multiparious cows, weeks +1 through +8): 12.0^ab wt %
Total Solids in Produced Milk (primiparious cows, weeks +1 through +8): 13.0 wt %
increase in total solids concentration in the produced milk (Pre-Partum Trial #1 (75 g/day wk −3..−1 only) versus Control Trial #1, primiparious cows, weeks +1 through +8): 7.4%
Total Solids Content of Produced Milk (Pre-Partum Trial #2 (75/0/100 g/day in wk −3..−1/+1..+4/+5..+8), multiparious cows, week +1): 14.4^a weight %
Total Solids Content of Produced Milk (Pre-Partum Trial #2 (75/0/100 g/day in wk −3..−1/+1..+4/+5..+8), multiparious cows, week +2): 13.25 weight %
Total Solids Content of Produced Milk (Pre-Partum Trial #2 (75/0/100 g/day in wk −3..−1/+1..+4/+5..+8), multiparious cows, week +3): 12.54 weight %
Total Solids Content of Produced Milk (Pre-Partum Trial #2 (75/0/100 g/day in wk −3..−1/+1..+4/+5..+8), multiparious cows, week +4): 11.76^a weight %
Total Solids Content of Produced Milk (Pre-Partum Trial #2 (75/0/100 g/day in wk −3..−1/+1..+4/+5..+8), multiparious cows, week +5): 11.60^a weight %
Total Solids Content of Produced Milk (Pre-Partum Trial #2 (75/0/100 g/day in wk −3..−1/+1..+4/+5..+8), multiparious cows, week +6): 11.43^a weight %
Total Solids Content of Produced Milk (Pre-Partum Trial #2 (75/0/100 g/day in wk −3..−1/+1..+4/+5..+8), multiparious cows, week +7): 11.55 weight %
Total Solids Content of Produced Milk (Pre-Partum Trial #2 (75/0/100 g/day in wk −3..−1/+1..+4/+5..+8), multiparious cows, week +8): 11.45^ab weight %
Total Solids Content of Produced Milk (Pre-Partum Trial #2 (75/0/100 g/day in wk −3..−1/+1..+4/+5..+8), multiparious cows, weeks +1 through +4): 12.94^a weight %
Total Solids Content of Produced Milk (Pre-Partum Trial #2 (75/0/100 g/day in wk −3..−1/+1..+4/+5..+8), multiparious cows, weeks +1 through +8): 12.23^a weight %
Total Solids Content of Produced Milk (Pre-Partum Trial #2 (75/0/100 g/day in wk −3..−1/+1..+4/+5..+8), multiparious cows, weeks +5 through +8): 11.51^a weight %
Total Solids Content of Produced Milk (Pre/Post Trial #1 (150/125/100 g/day in wk −3..−1/+1..+4/+5..+8), multiparious cows, week +1): 15.3^ab weight %
Total Solids Content of Produced Milk (Pre/Post Trial #1 (150/125/100 g/day in wk −3..−1/+1..+4/+5..+8), multiparious cows, week +1, two-trial comparison with Control Trial #2 (Table 26)): 15.3 weight %
Total Solids Content of Produced Milk (Pre/Post Trial #1 (150/125/100 g/day in wk −3..−1/+1..+4/+5..+8), multiparious cows, week +2): 12.28 weight %
Total Solids Content of Produced Milk (Pre/Post Trial #1 (150/125/100 g/day in wk −3..−1/+1..+4/+5..+8), multiparious cows, week +2, two-trial comparison with Control Trial #2 (Table 26)): 13.28 weight %
Total Solids Content of Produced Milk (Pre/Post Trial #1 (150/125/100 g/day in wk −3..−1/+1..+4/+5..+8), multiparious cows, week +3): 12.84 weight %
Total Solids Content of Produced Milk (Pre/Post Trial #1 (150/125/100 g/day in wk −3..−1/+1..+4/+5..+8), multiparious cows, week +3, two-trial comparison with Control Trial #2 (Table 26)): 12.84 weight %
Total Solids Content of Produced Milk (Pre/Post Trial #1 (150/125/100 g/day in wk −3..−1/+1..+4/+5..+8), multiparious cows, week +4): 12.54^c weight %
Total Solids Content of Produced Milk (Pre/Post Trial #1 (150/125/100 g/day in wk −3..−1/+1..+4/+5..+8), multiparious cows, week +4, two-trial comparison with Control Trial #2 (Table 26)): 12.54 weight %
Total Solids Content of Produced Milk (Pre/Post Trial #1 (150/125/100 g/day in wk −3..−1/+1..+4/+5..+8), multiparious cows, week +5): 12.17^ab weight %
Total Solids Content of Produced Milk (Pre/Post Trial #1 (150/125/100 g/day in wk −3..−1/+1..+4/+5..+8), multiparious cows, week +5, two-trial comparison with Control Trial #2 (Table 26)): 12.17 weight %
Total Solids Content of Produced Milk (Pre/Post Trial #1 (150/125/100 g/day in wk −3..−1/+1..+4/+5..+8), multiparious cows, week +6): 12.08^b weight %
Total Solids Content of Produced Milk (Pre/Post Trial #1 (150/125/100 g/day in wk −3..−1/+1..+4/+5..+8), multiparious cows, week +6, two-trial comparison with Control Trial #2 (Table 26)): 12.08 weight %
Total Solids Content of Produced Milk (Pre/Post Trial #1 (150/125/100 g/day in wk −3..−1/+1..+4/+5..+8), multiparious cows, week +7): 11.71 weight %
Total Solids Content of Produced Milk (Pre/Post Trial #1 (150/125/100 g/day in wk −3..−1/+1..+4/+5..+8), multiparious cows, week +7, two-trial comparison with Control Trial #2 (Table 26)): 11.71 weight %
Total Solids Content of Produced Milk (Pre/Post Trial #1 (150/125/100 g/day in wk −3..−1/+1..+4/+5..+8), multiparious cows, week +8): 12.06^b weight %
Total Solids Content of Produced Milk (Pre/Post Trial #1 (150/125/100 g/day in wk −3..−1/+1..+4/+5..+8), multiparious cows, week +8, two-trial comparison with Control Trial #2 (Table 26)): 12.06 weight %
Total Solids Content of Produced Milk (Pre/Post Trial #1 (150/125/100 g/day in wk −3..−1/+1..+4/+5..+8), multiparious cows, weeks +1 through +4): 13.49^ab weight %
Total Solids Content of Produced Milk (Pre/Post Trial #1 (150/125/100 g/day in wk −3..−1/+1..+4/+5..+8), multiparious cows, weeks +1 through +4, two-trial comparison with Control Trial #2 (Table 26)): 13.49 weight %
Total Solids Content of Produced Milk (Pre/Post Trial #1 (150/125/100 g/day in wk −3..−1/+1..+4/+5..+8), multiparious cows, weeks +1 through +8): 12.76^b weight %
Total Solids Content of Produced Milk (Pre/Post Trial #1 (150/125/100 g/day in wk −3..−1/+1..+4/+5..+8), multiparious cows, weeks +1 through +8, two-trial comparison with Control Trial #2 (Table 26)): 12.76 weight %
Total Solids Content of Produced Milk (Pre/Post Trial #1 (150/125/100 g/day in wk −3..−1/+1..+4/+5..+8), multiparious cows, weeks +5 through +8): 12.02^b weight %
Total Solids Content of Produced Milk (Pre/Post Trial #1 (150/125/100 g/day in wk −3..−1/+1..+4/+5..+8), multiparious cows, weeks +5 through +8, two-trial comparison with Control Trial #2 (Table 26)): 12.02 weight %
increase in total solids concentration in milk (Pre/Post Trial #1 (150/125/100 g/day) versus Control Trial #2, multiparious cows, weeks +1 through +4 (Table 26)): more than 3.7%
greater total solids concentration in milk (Pre/Post Trial #1 (150/125/100 g/day) versus Control Trial #2, multiparious cows, weeks +1 through +8): 4.6%
increase in total solids concentration in milk (Pre/Post Trial #1 (150/125/100 g/day) versus Control Trial #2, multiparious cows, weeks +1 through +8 (Table 26)): ~4.6%
greater total solids concentration in milk (Pre/Post Trial #1 (150/125/100 g/day) versus Control Trial #2, multiparious cows, weeks +5 through +8): 5.2%
increase in total solids concentration in milk (Pre/Post Trial #1 (150/125/100 g/day) versus Control Trial #2, multiparious cows, weeks +5 through +8 (Table 26)): more than 5.2%
greater total solids concentration in milk (Pre/Post Trial #1 (150/125/100 g/day) versus Pre-Partum Trial #2 (75/0/100 g/day), multiparious cows, weeks +1 through +8): 4.3%
greater total solids concentration in milk (Pre/Post Trial #1 (150/125/100 g/day) versus Pre-Partum Trial #2 (75/0/100 g/day), multiparious cows, weeks +5 through +8): 4.4%
Total Solids Content of Produced Milk (Pre/Post Trial #2 (75/75/100 g/day in wk −3..−1/+1..+4/+5..+8), multiparious cows, week +1): 15.6^b weight %
Total Solids Content of Produced Milk (Pre/Post Trial #2 (75/75/100 g/day in wk −3..−1/+1..+4/+5..+8), multiparious cows, week +2): 13.61 weight %
Total Solids Content of Produced Milk (Pre/Post Trial #2 (75/75/100 g/day in wk −3..−1/+1..+4/+5..+8), multiparious cows, week +3): 12.92 weight %
Total Solids Content of Produced Milk (Pre/Post Trial #2 (75/75/100 g/day in wk −3..−1/+1..+4/+5..+8), multiparious cows, week +4): 12.43^bc weight %
Total Solids Content of Produced Milk (Pre/Post Trial #2 (75/75/100 g/day in wk −3..−1/+1..+4/+5..+8), multiparious cows, week +5): 12.38^b weight %
Total Solids Content of Produced Milk (Pre/Post Trial #2 (75/75/100 g/day in wk −3..−1/+1..+4/+5..+8), multiparious cows, week +6): 11.89^ab weight %
Total Solids Content of Produced Milk (Pre/Post Trial #2 (75/75/100 g/day in wk −3..−1/+1..+4/+5..+8), multiparious cows, week +7): 11.64 weight %
Total Solids Content of Produced Milk (Pre/Post Trial #2 (75/75/100 g/day in wk −3..−1/+1..+4/+5..+8), multiparious cows, week +8): 11.57^ab weight %
Total Solids Content of Produced Milk (Pre/Post Trial #2 (75/75/100 g/day in wk −3..−1/+1..+4/+5..+8), multiparious cows, weeks +1 through +4): 13.63^b weight %
Total Solids Content of Produced Milk (Pre/Post Trial #2 (75/75/100 g/day in wk −3..−1/+1..+4/+5..+8), multiparious cows, weeks +1 through +8): 12.73^b weight %
Total Solids Content of Produced Milk (Pre/Post Trial #2 (75/75/100 g/day in wk −3..−1/+1..+4/+5..+8), multiparious cows, weeks +5 through +8): 11.87^ab weight %
greater total solids concentration in milk (Pre/Post Trial #2 (75/75/100 g/day) versus Control Trial #2, multiparious cows, weeks +1 through +4): 4.8%
greater total solids concentration in milk (Pre/Post Trial #2 (75/75/100 g/day) versus Control Trial #2, multiparious cows, weeks +1 through +8): 4.3%
greater total solids concentration in milk (Pre/Post Trial #2 (75/75/100 g/day) versus Pre-Partum Trial #2 (75/0/100 g/day), multiparious cows, weeks +1 through +4): 5.3%
greater total solids concentration in milk (Pre/Post Trial #2 (75/75/100 g/day) versus Pre-Partum Trial #2 (75/0/100 g/day), multiparious cows, weeks +1 through +8): 4.1%
increase in total solids concentration in milk (average of means of Pre-Partum Trial #2, Pre/Post Trial #1 and Pre/Post Trial #2 versus Control Trial #2, multiparious cows, weeks +1 through +4): 2.7%
increase in total solids concentration in milk (average of means of Pre-Partum Trial #2, Pre/Post Trial #1 and Pre/Post Trial #2 versus Control Trial #2, multiparious cows, weeks +1 through +8): 1.1%
increase in total solids concentration in milk (average of means of Pre-Partum Trial #2, Pre/Post Trial #1 and Pre/Post Trial #2 versus Control Trial #2, multiparious cows, weeks +5 through +8): 3.3%
